Data on 5 compounds can be found in ChEMBL document CHEMBL1137529, “Syntheses and optimization of new GS39783 analogues as positive allosteric modulators of GABA B receptors” (Bioorg Med Chem Lett, 2007).

For one series, the target named is GABA-B receptor (Homo sapiens, UniProt O75899+Q9UBS5). Put plainly: Activity at GABAB 1b/2 receptor expressed in CHO-K1 cells assessed as effect on GABA-induced [35S]GTP-gamma-S binding. (In general: GTPγS is a poorly hydrolysed GTP analogue; its binding reports G protein activation.)
Chain of GABA-B receptor (Q9UBS5 whole entry): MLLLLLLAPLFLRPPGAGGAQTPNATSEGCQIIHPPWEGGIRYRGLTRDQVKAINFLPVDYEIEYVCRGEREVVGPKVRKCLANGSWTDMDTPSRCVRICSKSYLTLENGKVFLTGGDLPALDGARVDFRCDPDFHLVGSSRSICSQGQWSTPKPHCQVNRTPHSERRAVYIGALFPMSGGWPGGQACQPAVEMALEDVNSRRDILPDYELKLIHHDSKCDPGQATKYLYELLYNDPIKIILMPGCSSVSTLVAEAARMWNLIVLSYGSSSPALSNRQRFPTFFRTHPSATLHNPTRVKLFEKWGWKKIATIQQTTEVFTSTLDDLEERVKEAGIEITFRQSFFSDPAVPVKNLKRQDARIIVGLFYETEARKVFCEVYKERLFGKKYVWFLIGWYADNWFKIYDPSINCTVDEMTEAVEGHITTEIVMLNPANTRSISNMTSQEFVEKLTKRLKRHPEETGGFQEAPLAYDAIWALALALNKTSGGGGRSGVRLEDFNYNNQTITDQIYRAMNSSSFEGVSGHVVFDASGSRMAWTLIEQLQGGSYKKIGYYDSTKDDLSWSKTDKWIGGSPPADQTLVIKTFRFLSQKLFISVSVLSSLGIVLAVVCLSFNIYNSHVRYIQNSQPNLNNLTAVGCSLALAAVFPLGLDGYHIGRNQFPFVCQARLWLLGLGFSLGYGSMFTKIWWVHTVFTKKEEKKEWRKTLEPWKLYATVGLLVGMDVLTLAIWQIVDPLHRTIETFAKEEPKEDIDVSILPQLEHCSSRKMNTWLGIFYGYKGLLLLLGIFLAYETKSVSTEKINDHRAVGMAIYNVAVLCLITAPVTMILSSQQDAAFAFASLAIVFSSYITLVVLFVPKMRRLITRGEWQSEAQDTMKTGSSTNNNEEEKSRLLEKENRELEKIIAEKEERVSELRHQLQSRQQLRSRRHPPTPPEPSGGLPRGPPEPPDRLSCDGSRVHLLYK
Chain of GABA-B receptor (O75899 whole entry): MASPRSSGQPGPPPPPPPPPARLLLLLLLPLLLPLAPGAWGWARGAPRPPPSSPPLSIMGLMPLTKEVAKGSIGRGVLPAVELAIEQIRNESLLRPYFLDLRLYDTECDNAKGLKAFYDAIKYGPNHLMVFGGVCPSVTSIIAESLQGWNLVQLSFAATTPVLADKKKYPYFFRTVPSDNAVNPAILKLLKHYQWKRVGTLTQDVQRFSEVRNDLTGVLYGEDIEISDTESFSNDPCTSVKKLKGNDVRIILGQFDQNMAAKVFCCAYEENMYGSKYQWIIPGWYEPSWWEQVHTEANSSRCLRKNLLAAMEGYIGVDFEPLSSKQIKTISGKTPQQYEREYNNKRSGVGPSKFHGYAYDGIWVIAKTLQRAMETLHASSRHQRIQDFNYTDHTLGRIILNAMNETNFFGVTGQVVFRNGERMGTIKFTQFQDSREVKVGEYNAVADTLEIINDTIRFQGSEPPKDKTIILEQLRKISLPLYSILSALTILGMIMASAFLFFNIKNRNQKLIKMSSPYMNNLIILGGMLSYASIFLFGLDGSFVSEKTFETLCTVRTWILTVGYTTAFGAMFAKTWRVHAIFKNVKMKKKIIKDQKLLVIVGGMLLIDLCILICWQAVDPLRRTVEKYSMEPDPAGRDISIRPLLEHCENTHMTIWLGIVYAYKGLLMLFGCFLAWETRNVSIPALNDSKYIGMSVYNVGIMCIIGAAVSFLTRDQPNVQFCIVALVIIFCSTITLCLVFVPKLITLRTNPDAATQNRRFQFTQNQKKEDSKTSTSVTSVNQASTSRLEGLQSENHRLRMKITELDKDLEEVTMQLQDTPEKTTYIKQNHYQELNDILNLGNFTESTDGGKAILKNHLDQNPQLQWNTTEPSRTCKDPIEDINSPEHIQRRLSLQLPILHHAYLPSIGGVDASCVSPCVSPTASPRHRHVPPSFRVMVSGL
Series [1] is described as follows: Solubility in water. The class given is physicochemical.
Series [2] is described as follows: Partition coefficient, log P of the compound. It is filed as physicochemical. The conditions noted are these: octanol/water.

As to `COc1ncc(-c2ccc(C(F)(F)F)cc2)c(N[C@@H]2C[C@@H]3CC[C@H]2C3)n1`, on GABA-B receptor, the EC50 (usually the midpoint of the concentration-response curve) was 2040 nM.

For the compound `Cc1ncc(-c2ccc(OC(F)(F)F)cc2)c(NC2CCCC2)n1`, the EC50 at GABA-B receptor is 4570 nM.

As to `Cc1ncc(-c2ccc(C(F)(F)F)cc2)c(NC23CC4CC(CC(C4)C2)C3)n1`, in series [1], the solubility (commonly how much of the substance goes into solution per volume) was below 10 µg/mL. In series [2], the logP (in general, a log measure of how a compound divides between an organic and an aqueous phase) is above 5.9.

For the compound `Cc1ncc(-c2ccc(C(F)(F)F)cc2)c(NC2C3CC4CC(C3)CC2C4)n1` (configuration not stated), the solubility in series [1] was below 10 µg/mL. For the same compound, in series [2], the logP is above 5.9.

Take `Cc1ncc(-c2ccc(C(F)(F)F)cc2)c(NC2CCCCCC2)n1`: on GABA-B receptor, the EC50 was 1660 nM.
